What was measured:
[1] = target: CDK4/Cyclin D3 (Homo sapiens (Human), UniProt P11802); assay: biochemical
[2] = target: CDK6/Cyclin D1 (Homo sapiens (Human), UniProt Q00534); assay: biochemical; conditions: CDK6_Ki (nM), non-phosphorylated CDK6/Cyclin D1, 2 mM ATP, Morrison fit
[3] = target: CDK2/Cyclin E1 (Homo sapiens (Human), UniProt P24941); assay: biochemical; conditions: CDK2_Ki (nM), phosphorylated CDK2/Cyclin E1, 150 μM ATP, Morrison tight-binding fit
Description: The assay was initiated with the addition of ATP, following a fifteen minutes pre-incubation of enzyme and inhibitor at room temperature in the reaction mixture. The reaction was stopped after 45 minutes at room temperature by the addition of 50 μL of 80 mM EDTA, pH 7.5.

[4] = tested on: Ovcar3 tumor xenograft; assay: Ovcar3 mouse tumor xenograft model; format: in vivo, NSG mice; conditions: 10 mpk PO QD, 50 mpk PO QD and 50 mpk PO BID, 14 days
Description: Ovcar3 tumor cell line, purchased from ATCC (ATCC HTB-161™) was cultured in RPMI1640 (1×) media (Gibco™ cat#11875-093) with 10% FBS (Gibco™ cat #26140-079). To establish a Ovcar3 xenograft model, 5×10^6 cells per mouse was implanted subcutaneously into right hind flank NSG mice (#5557-NOD.cg-Prkdc Jackson Lab). Cells were suspended in 50% matrigel (Cultrex Basement Membrane Extract (BME), Trevigen's Basement Membrane Matrix) and 50% RPMI1640 (1×) media (Gibco™ cat#11875-093) serum free media prior to implantation.
Animals were randomized 39 days after cells implantation with each group consisted of 4 mice. Treatment began when tumors reached 100 mm^3-190 mm^3 in size. Test compounds were prepared in 40% Captisol and dosed PO at 10 and 50 mg/kg QD or at 50 mg/kg BID as a suspension for 14 days. Animals were taken down at designated time. Mice receiving no drugs were given vehicle QD or BID for 14 days. Tumor volumes were measured once prior to randomization with an electric caliper, with tumor volumes were calculated using Length×Width×Width/2 formulation. Tumor volumes were measured twice a week with an electric caliper, with tumor volumes calculated using Length×Width×Width/2 formula. Animal weights were recorded twice weekly.

[5] = tested on: HCC1806 tumor xenograft; assay: HCC1806 mouse tumor xenograft model; format: in vivo, NU/NU female mice; conditions: 30 mpk PO BID, 50 mpk PO BID and 75 mpk PO BID, 14 days
Description: Source: HCC1806 (# CRL 2335, ATCC, Manassas, Va.)
The HCC1806 tumor cell line was cultured in RPMI1640 media supplemented with 10% Fetal Bovine Serum (FBS). To establish a HCC1806 xenograft model, 5×10^6 cells per mouse were implanted subcutaneously into right hind flank NU/NU female mice. Cells were suspended in 50% Cultrex Basement Membrane Extract and 50% RPMI 1640 media serum free media prior to implantation.
Animals were randomized 7 days after cells implantation with each group consisting of 13 mice. Treatment began when tumors reached 100 mm^3 to 170 mm^3 in size on Day 7. Test compounds were prepared in 0.1% Tween, 0.5% Methyl cellulose in water and dosed PO at 30, 50, and 75 mg/kg as a suspension BID for 14 days. Mice receiving no drugs were given vehicle BID for 14 days. Tumor volumes were measured twice a week with an electric caliper, with tumor volumes calculated using Length×Width×Width/2 formula. Animal weights were recorded twice weekly.

Sequence of CDK4/Cyclin D3 (P11802 whole entry): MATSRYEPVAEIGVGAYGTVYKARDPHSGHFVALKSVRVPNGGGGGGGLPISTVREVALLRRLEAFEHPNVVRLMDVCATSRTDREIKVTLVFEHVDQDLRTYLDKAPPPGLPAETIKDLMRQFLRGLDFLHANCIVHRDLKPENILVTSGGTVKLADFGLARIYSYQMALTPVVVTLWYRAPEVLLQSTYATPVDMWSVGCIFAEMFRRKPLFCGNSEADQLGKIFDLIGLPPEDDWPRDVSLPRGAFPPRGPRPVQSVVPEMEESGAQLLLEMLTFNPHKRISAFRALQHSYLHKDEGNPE
Sequence of CDK4/Cyclin D3 (P30281 whole entry partner): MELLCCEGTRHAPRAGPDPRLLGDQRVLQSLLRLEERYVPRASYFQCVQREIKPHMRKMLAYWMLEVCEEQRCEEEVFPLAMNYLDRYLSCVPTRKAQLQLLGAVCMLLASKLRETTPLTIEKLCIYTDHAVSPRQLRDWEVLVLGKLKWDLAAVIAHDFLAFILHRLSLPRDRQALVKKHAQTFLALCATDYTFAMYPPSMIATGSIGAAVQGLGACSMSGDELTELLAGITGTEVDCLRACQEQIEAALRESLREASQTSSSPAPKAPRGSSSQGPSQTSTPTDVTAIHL
Sequence of CDK6/Cyclin D1 (Q00534 whole entry): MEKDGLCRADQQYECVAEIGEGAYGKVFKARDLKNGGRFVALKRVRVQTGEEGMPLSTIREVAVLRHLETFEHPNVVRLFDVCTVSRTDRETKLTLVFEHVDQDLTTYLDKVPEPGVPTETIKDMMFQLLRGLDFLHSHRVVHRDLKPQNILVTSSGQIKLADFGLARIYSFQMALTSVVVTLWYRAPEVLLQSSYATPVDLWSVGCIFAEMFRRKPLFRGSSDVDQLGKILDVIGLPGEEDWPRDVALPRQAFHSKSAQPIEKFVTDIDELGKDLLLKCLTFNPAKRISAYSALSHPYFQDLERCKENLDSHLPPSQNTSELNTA
Sequence of CDK6/Cyclin D1 (P24385 whole entry partner): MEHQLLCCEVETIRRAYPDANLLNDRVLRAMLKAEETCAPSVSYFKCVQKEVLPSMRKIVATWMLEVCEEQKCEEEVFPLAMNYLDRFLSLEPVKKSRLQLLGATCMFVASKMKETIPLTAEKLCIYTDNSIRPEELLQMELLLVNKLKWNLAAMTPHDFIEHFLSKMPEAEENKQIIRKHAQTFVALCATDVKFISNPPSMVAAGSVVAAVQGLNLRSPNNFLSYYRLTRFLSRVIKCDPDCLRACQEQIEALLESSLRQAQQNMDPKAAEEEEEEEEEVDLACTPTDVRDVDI

Row | SMILES | Ki [1] [nM] | Ki [2] [nM] | Ki [3] [nM] | inhibition of tumor growth (mm^3) [4] | inhibition of tumor growth (mm^3) [5]
1 | CS(=O)(=O)N1CCC(Nc2ncc3ccc(=O)n([C@@H]4CCC[C@@H](O)C4)c3n2)CC1 [Example 3, 8-[(1R,3R)-3-hydroxycyclohexyl]-2-{[1-(methylsulfonyl)piperidin-4-yl]amino}pyrido[2,3-d]pyrimidin-7(8H)-one] | 3.43 | 1.17 | 0.26 |  | 
2 | C[C@@]1(O)CCC[C@H]1n1c(=O)ccc2cnc(NC3CCN(S(C)(=O)=O)CC3)nc21 [Example 2, 8-[(1R,2R)-2-hydroxy-2-methylcyclopentyl]-2-{[1-(methylsulfonyl)piperidin-4-yl]amino}pyrido[2,3-d]pyrimidin-7(8H)-one] |  |  |  | dose dependent inhibition of tumor growth | dose dependent inhibition of tumor growth
3 | C[C@@]1(O)CCC[C@H]1n1c(=O)c(CCO)cc2cnc(NC3CCN(S(C)(=O)=O)CC3)nc21 (single isomer, unassigned) [Example 122, (−)-6-(2-hydroxyethyl)-8-[(1R*,2R*)-2-hydroxy-2-methylcyclopentyl]-2-{[1-(methylsulfonyl)piperidin-4-yl]amino}pyrido[2,3-d]pyrimidin-7(8H)-one] | 0.92 | 0.23 | 0.11 |  | 
4 | C[C@@]1(O)CCC[C@H]1n1c(=O)c(C(F)F)cc2cnc(NC3CCN(S(C)(=O)=O)CC3)nc21 [Example 10, 6-(difluoromethyl)-8-[(1R,2R)-2-hydroxy-2-methylcyclopentyl]-2-{[1-(methylsulfonyl)piperidin-4-yl]amino}pyrido[2,3-d]pyrimidin-7(8H)-one] |  |  |  |  | tumor growth inhibition
5 | C[C@@]1(O)CCC[C@H]1n1c(=O)c(F)cc2cnc(NC3CCN(S(C)(=O)=O)CC3)nc21 (single isomer, unassigned) [Example 6, (−)-6-fluoro-8-[(1R*,2R*)-2-hydroxy-2-methylcyclopentyl]-2-{[1-(methylsulfonyl)piperidin-4-yl]amino}pyrido[2,3-d]pyrimidin-7(8H)-one] | 3.94 | 2.38 | 0.48 |  | 
6 | C[C@@]1(O)CCC[C@H]1n1c(=O)c(CC#N)cc2cnc(NC3CCN(S(C)(=O)=O)CC3)nc21 (single isomer, unassigned) [Example 120, (−)-(8-[(1R*,2R*)-2-hydroxy-2-methylcyclopentyl]-2-{[1-(methylsulfonyl)piperidin-4-yl]amino}-7-oxo-7,8-dihydropyrido[2,3-d]pyrimidin-6-yl)acetonitrile] | 0.34 | 0.18 | 0.16 |  | 

Now from value to compound, other results behind:

Row | Ki [1] [nM] | Ki [2] [nM] | Ki [3] [nM] | SMILES | inhibition of tumor growth (mm^3) [4] | inhibition of tumor growth (mm^3) [5]
7 |  | 4.96 | 3.85 | C[C@]1(O)CCC[C@@H]1n1c(=O)ccc2cnc(NC3CCN(S(=O)(=O)C4CC4)CC3)nc21 (single isomer, unassigned) [Example 75, (+)-2-{[1-(cyclopropylsulfonyl)piperidin-4-yl]amino}-8-[(1R*,2R*)-2-hydroxy-2-methylcyclopentyl]pyrido[2,3-d]pyrimidin-7(8H)-one] |  | 
8 |  | 1.99 | 0.1 | C[C@@]1(O)CCC[C@H]1n1c(=O)ccc2cnc(NC3CCN(S(N)(=O)=O)CC3)nc21 (single isomer, unassigned) [Example 183, (−)-4-({8-[(1R*,2R*)-2-hydroxy-2-methylcyclopentyl]-7-oxo-7,8-dihydropyrido[2,3-d]pyrimidin-2-yl}amino)piperidine-1-sulfonamide] |  | 
9 |  | 3.18 | 0.48 | COC(C)(C)CNS(=O)(=O)N1CCC(Nc2ncc3ccc(=O)n([C@@H]4CCC[C@@]4(C)O)c3n2)CC1 (single isomer, unassigned) [Example 60, (−)-4-({8-[(1R*,2R*)-2-hydroxy-2-methylcyclopentyl]-7-oxo-7,8-dihydropyrido[2,3-d]pyrimidin-2-yl}amino)-N-(2-methoxy-2-methylpropyl)piperidine-1-sulfonamide] |  | 
